Experimental data as given in PubChem BioAssay (NCI).
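These data come from cells grown in 96-well plates and exposed to compound for 48 hours at five concentrations. Here, GI50 denotes the concentration required for 50% inhibition of growth. TGI is the concentration that stops growth completely.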

How the values were obtained:
Assay in all cases: growth of human tumour cells (NCI), 48 h
[1] = test system: SW-620 colon
[2] = test system: SK-MEL-28 melanoma
[3] = test system: MCF7 breast
[4] = test system: EKVX NSCLC
[5] = test system: HL-60(TB) leukemia
[6] = test system: NCI-H226 lung
[7] = test system: RPMI-8226 leukemia
[8] = test system: A549 NSCLC
[9] = test system: OVCAR-5 ovarian
[10] = test system: HCC-2998 colon
[11] = test system: NCI-H23 lung
[12] = test system: HT29 colon
[13] = test system: SF-295 CNS
[14] = test system: SK-OV-3 ovarian
[15] = test system: TK-10 renal
[16] = test system: MDA-MB-435
[17] = test system: K-562 leukemia
[18] = test system: NCI-H460 lung
[19] = test system: COLO 205 colon
[20] = test system: IGROV1 ovarian
[21] = test system: SF-268 CNS
[22] = test system: HCT-15 colon
[23] = test system: NCI/ADR-RES ovarian
[24] = test system: OVCAR-4 ovarian
[25] = test system: HS 578T breast
[26] = test system: OVCAR-8 ovarian
[27] = test system: M14 melanoma
[28] = test system: PC-3 prostate
[29] = test system: UO-31 renal
[30] = test system: UACC-257 melanoma
[31] = test system: KM12 colon
[32] = test system: HOP-92 NSCLC
[33] = test system: T-47D breast
[34] = test system: MOLT-4 leukemia
[35] = test system: UACC-62 melanoma
[36] = test system: SK-MEL-2 melanoma
[37] = test system: SF-539 CNS
[38] = test system: NCI-H522 lung
[39] = test system: DU-145 prostate
[40] = test system: CCRF-CEM leukemia
[41] = test system: U251 CNS
[42] = test system: CAKI-1 renal
[43] = test system: OVCAR-3 ovarian
[44] = test system: MALME-3M melanoma
[45] = test system: HCT-116 colon
[46] = test system: HOP-62 NSCLC
[47] = test system: 786-0 renal
[48] = test system: SK-MEL-5 melanoma
[49] = test system: LOX IMVI melanoma
[50] = test system: ACHN renal
[51] = test system: A498 renal
[52] = test system: MDA-MB-231 breast
[53] = test system: SNB-75 CNS
[54] = test system: SR leukemia
[55] = test system: RXF 393 renal
[56] = test system: BT-549 breast
[57] = test system: SNB-19 CNS
[58] = test system: SN12C renal

## O=C1C2C(C(=O)N1CC[Se][Se]CCN1C(=O)C3C(C1=O)[C@H]1C=C[C@@H]3C1)[C@H]1C=C[C@@H]2C1 (stereo partly drawn)
[1]
  GI50: 2620 nM
  TGI: 7590 nM
[2]
  GI50: 362 nM
  TGI: 3020 nM
[3]
  GI50: 332 nM
  TGI: 4010 nM
[4]
  GI50: 274 nM
  TGI: 969 nM
[5]
  GI50: 209 nM
  TGI: 477 nM
[6]
  GI50: 219 nM
  TGI: 495 nM
[7]
  GI50: 2190 nM
  TGI: 5170 nM
[8]
  GI50: 447 nM
  TGI: 4720 nM
[9]
  GI50: 1480 nM
  TGI: 5580 nM
[10]
  GI50: 2620 nM
  TGI: 8920 nM
[11]
  GI50: 802 nM
  TGI: 4480 nM
[12]
  GI50: 355 nM
  TGI: 12700 nM
[13]
  GI50: 1110 nM
  TGI: 2420 nM
[14]
  GI50: 2940 nM
  TGI: 6570 nM
[15]
  GI50: 303 nM
  TGI: 994 nM
[16]
  GI50: 267 nM
  TGI: 744 nM
[17]
  GI50: 1630 nM
  TGI: > 38500 nM
[18]
  GI50: 361 nM
  TGI: 1690 nM
[19]
  GI50: 2120 nM
  TGI: 4980 nM
[20]
  GI50: 220 nM
  TGI: 556 nM
[21]
  GI50: 271 nM
  TGI: 760 nM
[22]
  GI50: 441 nM
  TGI: 2330 nM
[23]
  GI50: 561 nM
  TGI: 3540 nM
[24]
  GI50: 1040 nM
  TGI: 4520 nM
[25]
  GI50: 266 nM
  TGI: 1160 nM
[26]
  GI50: 404 nM
  TGI: 2280 nM
[27]
  GI50: 332 nM
  TGI: 1970 nM
[28]
  GI50: 844 nM
  TGI: 4390 nM
[29]
  GI50: 247 nM
  TGI: 964 nM
[30]
  GI50: 452 nM
  TGI: 3140 nM
[31]
  GI50: 1350 nM
  TGI: 10200 nM
[32]
  GI50: 575 nM
  TGI: 2290 nM
[33]
  GI50: 2090 nM
  TGI: 5420 nM
[34]
  GI50: 410 nM
  TGI: 6680 nM
[35]
  GI50: 1370 nM
  TGI: 3240 nM
[36]
  GI50: 1980 nM
  TGI: 5780 nM
[37]
  GI50: 223 nM
  TGI: 467 nM
[38]
  GI50: 1790 nM
  TGI: 4440 nM
[39]
  GI50: 555 nM
  TGI: 2860 nM
[40]
  GI50: 566 nM
  TGI: 4020 nM
[41]
  GI50: 597 nM
  TGI: 3040 nM
[42]
  GI50: 301 nM
  TGI: 828 nM
[43]
  GI50: 852 nM
  TGI: 2940 nM
[44]
  GI50: 277 nM
  TGI: 1080 nM
[45]
  GI50: 409 nM
  TGI: 2870 nM
[46]
  GI50: 488 nM
  TGI: 2660 nM
[47]
  GI50: 369 nM
  TGI: 1290 nM
[48]
  GI50: 1670 nM
  TGI: 3700 nM
[49]
  GI50: 167 nM
  TGI: 327 nM
[50]
  GI50: 408 nM
  TGI: 2210 nM
[51]
  GI50: 686 nM
  TGI: 2260 nM
[52]
  GI50: 595 nM
  TGI: 5480 nM
[53]
  GI50: 171 nM
  TGI: 488 nM
[54]
  GI50: 1100 nM
  TGI: > 26600 nM
[55]
  GI50: 338 nM
  TGI: 1110 nM

## O=C(Nc1ccc(Br)cc1)Nc1cccc(Br)c1
[1]
  GI50: 5540 nM
  TGI: > 100000 nM
[2]
  GI50: 4770 nM
  TGI: > 100000 nM
[3]
  GI50: 3200 nM
  TGI: > 100000 nM
[6]
  GI50: 47100 nM
  TGI: > 100000 nM
[56]
  GI50: > 100000 nM
  TGI: > 100000 nM
[9]
  GI50: > 100000 nM
  TGI: > 100000 nM
[14]
  GI50: 39400 nM
  TGI: > 100000 nM
[19]
  GI50: 4100 nM
  TGI: > 100000 nM
[20]
  GI50: 5820 nM
  TGI: > 100000 nM
[21]
  GI50: > 100000 nM
  TGI: > 100000 nM
[25]
  GI50: > 100000 nM
  TGI: > 100000 nM
[27]
  GI50: 9960 nM
  TGI: > 100000 nM
[30]
  GI50: > 100000 nM
  TGI: > 100000 nM
[57]
  GI50: 11100 nM
  TGI: > 100000 nM
[34]
  GI50: 5380 nM
  TGI: > 100000 nM
[36]
  GI50: 5700 nM
  TGI: > 100000 nM
[37]
  GI50: 15300 nM
  TGI: > 100000 nM
[39]
  GI50: 5800 nM
  TGI: > 100000 nM
[42]
  GI50: > 100000 nM
  TGI: > 100000 nM
[44]
  GI50: 8690 nM
  TGI: > 100000 nM
[46]
  GI50: 7240 nM
  TGI: > 100000 nM
[47]
  GI50: 34500 nM
  TGI: > 100000 nM
[48]
  GI50: > 100000 nM
  TGI: > 100000 nM
[58]
  GI50: 71800 nM
  TGI: > 100000 nM
[51]
  GI50: 4810 nM
  TGI: > 100000 nM
[52]
  GI50: 30500 nM
  TGI: > 100000 nM
[53]
  GI50: 10200 nM
  TGI: 63000 nM
[54]
  GI50: 11600 nM
  TGI: > 100000 nM
[55]
  GI50: > 100000 nM
  TGI: > 100000 nM
